Measurements reported in patent US8754242B2, “Herbicides” (Syngenta Crop Protection LLC, priority 2007, dated 2014).

Legend:
Format in all cases: in vivo
[1] = test system: Alopecurus myosuroides (ALOMY); assay: Test Example 1 pre-emergence herbicidal activity; conditions: rate 250 g/ha, evaluated 20 days later; for pest or weed control at 250 g/ha: Alopecurus myosuroides, 480 h, read-out: Pre-emergence activity ALOMY (100=total damage to plant; 0=no damage to plant)
Procedure, shortened: (§1)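 Once sown in standard soil, pots received an aqueous spray of the formulated active ingredient, either after one day or after ten days of controlled glasshouse growth. Plants then grew under optimum greenhouse conditions. Herbicidal effect was assessed visually 15 (post-emergence) or 20 (pre-emergence) days later, 100 meaning total plant damage.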

Avena fatua (AVEFA) [2] = assay: Test Example 1 pre-emergence herbicidal activity; conditions: rate 250 g/ha, evaluated 20 days later; for pest or weed control at 250 g/ha: Avena fatua, 480 h, read-out: Pre-emergence activity AVEFA (100=total damage to plant; 0=no damage to plant)
Procedure, shortened: as §1

[3] = test system: Digitaria sanguinalis (DIGSA); assay: Test Example 1 pre-emergence herbicidal activity; conditions: rate 250 g/ha, evaluated 20 days later; for pest or weed control at 250 g/ha: Digitaria sanguinalis, 480 h, read-out: Pre-emergence activity DIGSA (100=total damage to plant; 0=no damage to plant)
Procedure, shortened: as §1

[4] = test system: Echinochloa crus-galli (ECHCG); assay: Test Example 1 pre-emergence herbicidal activity; conditions: rate 250 g/ha, evaluated 20 days later; for pest or weed control at 250 g/ha: Echinochloa crus-galli, 480 h, read-out: Pre-emergence activity ECHCG (100=total damage to plant; 0=no damage to plant)
Procedure, shortened: as §1

Lolium perenne (LOLPE) [5] = assay: Test Example 1 pre-emergence herbicidal activity; conditions: rate 250 g/ha, evaluated 20 days later; for pest or weed control at 250 g/ha: Lolium perenne, 480 h, read-out: Pre-emergence activity LOLPE (100=total damage to plant; 0=no damage to plant)
Procedure, shortened: as §1

Setaria faberi (SETFA) [6] = assay: Test Example 1 pre-emergence herbicidal activity; conditions: rate 250 g/ha, evaluated 20 days later; for pest or weed control at 250 g/ha: Setaria faberi, 480 h, read-out: Pre-emergence activity SETFA (100=total damage to plant; 0=no damage to plant)
Procedure, shortened: as §1

[7] = test system: Alopecurus myosuroides (ALOMY); assay: Test Example 1 post-emergence herbicidal activity; conditions: rate 125 g/ha, evaluated 15 days later; for pest or weed control at 125 g/ha: 360 h, read-out: Post-emergence activity ALOMY (100=total damage to plant; 0=no damage to plant)
Procedure, shortened: as §1

Avena fatua (AVEFA) [8] = assay: Test Example 1 post-emergence herbicidal activity; conditions: rate 125 g/ha, evaluated 15 days later; for pest or weed control at 125 g/ha: 360 h, read-out: Post-emergence activity AVEFA (100=total damage to plant; 0=no damage to plant)
Procedure, shortened: as §1

[9] = test system: Digitaria sanguinalis (DIGSA); assay: Test Example 1 post-emergence herbicidal activity; conditions: rate 125 g/ha, evaluated 15 days later; for pest or weed control at 125 g/ha: 360 h, read-out: Post-emergence activity DIGSA (100=total damage to plant; 0=no damage to plant)
Procedure, shortened: as §1

[10] = test system: Echinochloa crus-galli (ECHCG); assay: Test Example 1 post-emergence herbicidal activity; conditions: rate 125 g/ha, evaluated 15 days later; for pest or weed control at 125 g/ha: 360 h, read-out: Post-emergence activity ECHCG (100=total damage to plant; 0=no damage to plant)
Procedure, shortened: as §1

Lolium perenne (LOLPE) [11] = assay: Test Example 1 post-emergence herbicidal activity; conditions: rate 125 g/ha, evaluated 15 days later; for pest or weed control at 125 g/ha: 360 h, read-out: Post-emergence activity LOLPE (100=total damage to plant; 0=no damage to plant)
Procedure, shortened: as §1

Setaria faberi (SETFA) [12] = assay: Test Example 1 post-emergence herbicidal activity; conditions: rate 125 g/ha, evaluated 15 days later; for pest or weed control at 125 g/ha: 360 h, read-out: Post-emergence activity SETFA (100=total damage to plant; 0=no damage to plant)
Procedure, shortened: as §1

Cc1cc(C)c(C2=C(O)[C@H]3[C@@H](C2=O)[C@@H]2CC[C@@]3(C)O2)c(C)c1 (racemic) [Example T9]
Pre-emergence activity ALOMY (100=total damage to plant; 0=no damage to plant) [1]: 70 | Pre-emergence activity AVEFA (100=total damage to plant; 0=no damage to plant) (Avena fatua (AVEFA) [2]): 40 | pest or weed control at 250 g/ha [3]: 100% | pest or weed control at 250 g/ha [4]: 100% | pest or weed control at 250 g/ha (Lolium perenne (LOLPE) [5]): 100% | pest or weed control at 250 g/ha (Setaria faberi (SETFA) [6]): 100% | pest or weed control at 125 g/ha [7]: 80% | pest or weed control at 125 g/ha (Avena fatua (AVEFA) [8]): 60% | pest or weed control at 125 g/ha [9]: 100% | pest or weed control at 125 g/ha [10]: 100% | pest or weed control at 125 g/ha (Lolium perenne (LOLPE) [11]): 70% | pest or weed control at 125 g/ha (Setaria faberi (SETFA) [12]): 80%

CCc1cc(C)cc(CC)c1C1=C(O)[C@@H]2[C@@H]3O[C@@H](C[C@H]3c3ccc(C)cc3Cl)[C@@H]2C1=O [Example T143]
pest or weed control at 250 g/ha [1]: 50% | pest or weed control at 250 g/ha (Avena fatua (AVEFA) [2]): 20% | pest or weed control at 250 g/ha [3]: 80% | pest or weed control at 250 g/ha [4]: 10% | pest or weed control at 250 g/ha (Lolium perenne (LOLPE) [5]): 70% | pest or weed control at 250 g/ha (Setaria faberi (SETFA) [6]): 70% | pest or weed control at 125 g/ha [7]: 40% | pest or weed control at 125 g/ha (Avena fatua (AVEFA) [8]): 60% | pest or weed control at 125 g/ha [9]: 60% | pest or weed control at 125 g/ha [10]: 70% | pest or weed control at 125 g/ha (Lolium perenne (LOLPE) [11]): 30% | pest or weed control at 125 g/ha (Setaria faberi (SETFA) [12]): 40%

Cc1cc(C)c(C2=C(O)[C@H]3[C@@H](C2=O)[C@@H]2CC[C@@]3(C)O2)c(C)c1 [Example T48]
Pre-emergence activity ALOMY (100=total damage to plant; 0=no damage to plant) [1]: 100 | Pre-emergence activity AVEFA (100=total damage to plant; 0=no damage to plant) (Avena fatua (AVEFA) [2]): 80 | Pre-emergence activity DIGSA (100=total damage to plant; 0=no damage to plant) [3]: 100 | Pre-emergence activity ECHCG (100=total damage to plant; 0=no damage to plant) [4]: 100 | Pre-emergence activity LOLPE (100=total damage to plant; 0=no damage to plant) (Lolium perenne (LOLPE) [5]): 100 | Pre-emergence activity SETFA (100=total damage to plant; 0=no damage to plant) (Setaria faberi (SETFA) [6]): 100 | Post-emergence activity ALOMY (100=total damage to plant; 0=no damage to plant) [7]: 80 | Post-emergence activity AVEFA (100=total damage to plant; 0=no damage to plant) (Avena fatua (AVEFA) [8]): 70 | Post-emergence activity DIGSA (100=total damage to plant; 0=no damage to plant) [9]: 100 | Post-emergence activity ECHCG (100=total damage to plant; 0=no damage to plant) [10]: 100 | Post-emergence activity LOLPE (100=total damage to plant; 0=no damage to plant) (Lolium perenne (LOLPE) [11]): 70 | Post-emergence activity SETFA (100=total damage to plant; 0=no damage to plant) (Setaria faberi (SETFA) [12]): 90

Cc1cc(C)c(C2=C(O)[C@H]3[C@@H](C2=O)[C@@H]2C=C[C@@]3(CO)O2)c(C)c1 (racemic) [Example T37]
pest or weed control at 250 g/ha [1]: 60% | pest or weed control at 250 g/ha (Avena fatua (AVEFA) [2]): 30% | pest or weed control at 250 g/ha [3]: 20% | pest or weed control at 250 g/ha [4]: 30% | pest or weed control at 250 g/ha (Lolium perenne (LOLPE) [5]): 30% | pest or weed control at 250 g/ha (Setaria faberi (SETFA) [6]): 0% | pest or weed control at 125 g/ha [7]: 50% | pest or weed control at 125 g/ha (Avena fatua (AVEFA) [8]): 20% | pest or weed control at 125 g/ha [9]: 50% | pest or weed control at 125 g/ha [10]: 80% | pest or weed control at 125 g/ha (Lolium perenne (LOLPE) [11]): 20% | pest or weed control at 125 g/ha (Setaria faberi (SETFA) [12]): 70%

C#CCOC(=O)OC1=C(c2c(C)cc(C)cc2C)C(=O)[C@@H]2[C@H]1[C@H]1CC[C@@H]2O1 (racemic) [Example P3]
pest or weed control at 250 g/ha [1]: 100% | pest or weed control at 250 g/ha (Avena fatua (AVEFA) [2]): 100% | pest or weed control at 250 g/ha [3]: 90% | pest or weed control at 250 g/ha [4]: 100% | pest or weed control at 250 g/ha (Lolium perenne (LOLPE) [5]): 100% | pest or weed control at 250 g/ha (Setaria faberi (SETFA) [6]): 90% | pest or weed control at 125 g/ha [7]: 100% | pest or weed control at 125 g/ha (Avena fatua (AVEFA) [8]): 90% | pest or weed control at 125 g/ha [9]: 70% | pest or weed control at 125 g/ha [10]: 100% | pest or weed control at 125 g/ha (Lolium perenne (LOLPE) [11]): 100% | pest or weed control at 125 g/ha (Setaria faberi (SETFA) [12]): 80%

CCc1cc(C)cc(CC)c1C1=C(O)[C@@H]2[C@@H]3O[C@@H](C[C@H]3c3ccc(C(C)=O)cc3)[C@@H]2C1=O [Example T171]
pest or weed control at 250 g/ha [1]: 30% | pest or weed control at 250 g/ha (Avena fatua (AVEFA) [2]): 0% | pest or weed control at 250 g/ha [3]: 40% | pest or weed control at 250 g/ha [4]: 70% | pest or weed control at 250 g/ha (Lolium perenne (LOLPE) [5]): 10% | pest or weed control at 250 g/ha (Setaria faberi (SETFA) [6]): 70% | pest or weed control at 125 g/ha [7]: 70% | pest or weed control at 125 g/ha (Avena fatua (AVEFA) [8]): 60% | pest or weed control at 125 g/ha [9]: 80% | pest or weed control at 125 g/ha [10]: 100% | pest or weed control at 125 g/ha (Lolium perenne (LOLPE) [11]): 20% | pest or weed control at 125 g/ha (Setaria faberi (SETFA) [12]): 90%

CCc1cc(C)cc(CC)c1C1=C(O)[C@@H]2[C@@H]3O[C@@H](C[C@H]3c3ccc(F)c(Cl)c3)[C@@H]2C1=O [Example T149]
pest or weed control at 250 g/ha [1]: 90% | pest or weed control at 250 g/ha (Avena fatua (AVEFA) [2]): 60% | pest or weed control at 250 g/ha [3]: 70% | pest or weed control at 250 g/ha [4]: 90% | pest or weed control at 250 g/ha (Lolium perenne (LOLPE) [5]): 80% | pest or weed control at 250 g/ha (Setaria faberi (SETFA) [6]): 80% | pest or weed control at 125 g/ha [7]: 80% | pest or weed control at 125 g/ha (Avena fatua (AVEFA) [8]): 90% | pest or weed control at 125 g/ha [9]: 80% | pest or weed control at 125 g/ha [10]: 100% | pest or weed control at 125 g/ha (Lolium perenne (LOLPE) [11]): 70% | pest or weed control at 125 g/ha (Setaria faberi (SETFA) [12]): 70%
